Assay results: patent publication US6340689B1 (priority 1999, dated 2002)
In brackets after ≈: the same amount, converted by molar mass.

Columns and labels:
L. micadadei = assay: organism not typed; assay type: cell-based, L. micdadei; conditions: for MIC: 48 h, read-out: MIC Range
[1] = test system: L. pneumophila serogroup 7; assay: microbe, parasite or virus in culture; assay type: cell-based; conditions: Legionella pneumophila; for MIC: 48 h, read-out: MIC Range
L. dumoffii = assay: organism not typed; assay type: cell-based; conditions: for MIC: 48 h, read-out: MIC Range
L. longbeacheae = assay: organism not typed; assay type: cell-based; conditions: for MIC: 48 h, read-out: MIC Range
[2] = test system: isolates of Legionella pneumophila and other Legionella spp.; assay: microbe, parasite or virus in culture; assay type: cell-based
Other Legionella spp. = assay: microbe, parasite or virus in culture; assay type: cell-based; conditions: for MIC: 48 h, read-out: MIC Range
[3] = test system: Erythromycin-susceptible L. pneumophila; assay type: cell-based, Legionella pneumophila; conditions: Erythromycin-susceptible L. pneumophila (n = 15); 4 × MIC; mean ± SD
[4] = test system: L. pneumophila serogroup 5; assay: microbe, parasite or virus in culture; assay type: cell-based; conditions: Legionella pneumophila; for MIC: 48 h, read-out: MIC Range
[5] = test system: Erythromycin-susceptible Legionella spp. other than L. pneumophila; assay type: cell-based; conditions: Erythromycin-susceptible Legionella spp. (n = 13); 4 × MIC; mean ± SD
[6] = test system: L. pneumophila serogroup 1; assay: microbe, parasite or virus in culture; assay type: cell-based, Legionella pneumophila; conditions: Legionella pneumophila; for MIC: 48 h, read-out: MIC Range; for MIC90: L. pneumophila serogroup 1 (n = 85)
[7] = test system: L. pneumophila serogroup 4; assay: microbe, parasite or virus in culture; assay type: cell-based; conditions: Legionella pneumophila; for MIC: 48 h, read-out: MIC Range
[8] = test system: L. pneumophila serogroup 3; assay: microbe, parasite or virus in culture; assay type: cell-based; conditions: Legionella pneumophila; for MIC: 48 h, read-out: MIC Range
[9] = test system: L. pneumophila serogroup 2; assay: microbe, parasite or virus in culture; assay type: cell-based; conditions: Legionella pneumophila; for MIC: 48 h, read-out: MIC Range
[10] = test system: L. pneumophila serogroup 6; assay: microbe, parasite or virus in culture; assay type: cell-based; conditions: Legionella pneumophila; for MIC: 48 h, read-out: MIC Range
[11] = test system: L. pneumophila serogroup 8, 9; assay: microbe, parasite or virus in culture; assay type: cell-based; conditions: Legionella pneumophila; for MIC: 48 h, read-out: MIC Range

Row | Compound | MIC50 (L. micadadei) [µg/mL] | MIC90 (L. micadadei) [µg/mL] | MIC (L. micadadei) [µg/mL] | MIC50 [1] [µg/mL] | MIC90 [1] [µg/mL] | MIC [1] [µg/mL] | MIC50 (L. dumoffii) [µg/mL] | MIC90 (L. dumoffii) [µg/mL] | MIC (L. dumoffii) [µg/mL] | MIC50 (L. longbeacheae) [µg/mL] | MIC90 (L. longbeacheae) [µg/mL] | MIC (L. longbeacheae) [µg/mL] | MIC90 [2] [µg/mL] | MIC50 (Other Legionella spp.) [µg/mL] | MIC90 (Other Legionella spp.) [µg/mL] | MIC (Other Legionella spp.) [µg/mL] | Mean PAE [3] [h] | MIC50 [4] [µg/mL] | MIC90 [4] [µg/mL] | MIC [4] [µg/mL] | also measured
1 | COc1c(N2C[C@@H]3CCCN[C@@H]3C2)c(F)cc2c(=O)c(C(=O)O)cn(C3CC3)c12 [Moxifloxacin] | 0.016 (≈ 0.0399 µM) | 0.03 (≈ 0.0747 µM) | 0.008 to 0.03 (≈ 0.0199 to 0.0747 µM) | ≤ 0.004 | 0.016 (≈ 0.0399 µM) | 0.004 to 0.016 (≈ 0.00996 to 0.0399 µM) | 0.03 (≈ 0.0747 µM) | 0.03 (≈ 0.0747 µM) | 0.008 to 0.03 (≈ 0.0199 to 0.0747 µM) | 0.016 (≈ 0.0399 µM) | 0.03 (≈ 0.0747 µM) | 0.008 to 0.03 (≈ 0.0199 to 0.0747 µM) | 0.016 (≈ 0.0399 µM) | 0.008 (≈ 0.0199 µM) | 0.03 (≈ 0.0747 µM) | 0.008 to 0.03 (≈ 0.0199 to 0.0747 µM) | 3.59 ± 3 | 0.016 (≈ 0.0399 µM) | 0.016 (≈ 0.0399 µM) | 0.004 to 0.03 (≈ 0.00996 to 0.0747 µM) | MICs fold more active than erythromycin (L. micadadei): 5 fold; Mean PAE [5]: 1.18 ± 2 h; MIC50 [6]: 0.016 µg/mL (≈ 0.0399 µM); MIC [6]: 0.004 to 0.03 µg/mL (≈ 0.00996 to 0.0747 µM); MIC90 [6]: 0.016 µg/mL (≈ 0.0399 µM); MIC50 [7]: 0.016 µg/mL (≈ 0.0399 µM); MIC90 [7]: 0.016 µg/mL (≈ 0.0399 µM); MIC [7]: 0.004 to 0.016 µg/mL (≈ 0.00996 to 0.0399 µM); MIC50 [8]: 0.008 µg/mL (≈ 0.0199 µM); MIC90 [8]: 0.016 µg/mL (≈ 0.0399 µM); MIC [8]: 0.004 to 0.016 µg/mL (≈ 0.00996 to 0.0399 µM); MIC50 [9]: 0.008 µg/mL (≈ 0.0199 µM); MIC90 [9]: 0.008 µg/mL (≈ 0.0199 µM); MIC [9]: 0.004 to 0.016 µg/mL (≈ 0.00996 to 0.0399 µM); MIC50 [10]: 0.008 µg/mL (≈ 0.0199 µM); MIC90 [10]: 0.016 µg/mL (≈ 0.0399 µM); MIC [10]: 0.004 to 0.016 µg/mL (≈ 0.00996 to 0.0399 µM); MIC50 [11]: 0.016 µg/mL (≈ 0.0399 µM); MIC90 [11]: 0.016 µg/mL (≈ 0.0399 µM); MIC [11]: 0.016 µg/mL (≈ 0.0399 µM)
2 | CC1COc2c(N3CCN(C)CC3)c(F)cc3c(=O)c(C(=O)O)cn1c23 (centres unmarked) [Ofloxacin] | 0.03 (≈ 0.083 µM) | 0.03 (≈ 0.083 µM) | 0.03 (≈ 0.083 µM) | 0.03 (≈ 0.083 µM) | 0.03 (≈ 0.083 µM) | 0.03 (≈ 0.083 µM) | 0.03 (≈ 0.083 µM) | 0.03 (≈ 0.083 µM) | 0.03 (≈ 0.083 µM) | 0.03 (≈ 0.083 µM) | 0.03 (≈ 0.083 µM) | 0.016 to 0.03 (≈ 0.0443 to 0.083 µM) | 0.03 (≈ 0.083 µM) | 0.016 (≈ 0.0443 µM) | 0.06 (≈ 0.166 µM) | 0.004 to 0.06 (≈ 0.0111 to 0.166 µM) | 3.53 ± 3 | 0.016 (≈ 0.0443 µM) | 0.03 (≈ 0.083 µM) | 0.008 to 0.03 (≈ 0.0221 to 0.083 µM) | MICs fold more active than erythromycin (L. micadadei): 5 fold; Mean PAE [5]: 3.04 ± 2 h; MIC50 [6]: 0.03 µg/mL (≈ 0.083 µM); MIC [6]: 0.008 to 0.03 µg/mL (≈ 0.0221 to 0.083 µM); MIC90 [6]: 0.03 µg/mL (≈ 0.083 µM); MIC50 [7]: 0.03 µg/mL (≈ 0.083 µM); MIC90 [7]: 0.03 µg/mL (≈ 0.083 µM); MIC [7]: 0.008 to 0.03 µg/mL (≈ 0.0221 to 0.083 µM); MIC50 [8]: 0.016 µg/mL (≈ 0.0443 µM); MIC90 [8]: 0.03 µg/mL (≈ 0.083 µM); MIC [8]: 0.016 to 0.03 µg/mL (≈ 0.0443 to 0.083 µM); MIC50 [9]: 0.016 µg/mL (≈ 0.0443 µM); MIC90 [9]: 0.03 µg/mL (≈ 0.083 µM); MIC [9]: 0.008 to 0.03 µg/mL (≈ 0.0221 to 0.083 µM); MIC50 [10]: 0.03 µg/mL (≈ 0.083 µM); MIC90 [10]: 0.03 µg/mL (≈ 0.083 µM); MIC [10]: 0.008 to 0.03 µg/mL (≈ 0.0221 to 0.083 µM); MIC50 [11]: 0.03 µg/mL (≈ 0.083 µM); MIC90 [11]: 0.03 µg/mL (≈ 0.083 µM); MIC [11]: 0.03 µg/mL (≈ 0.083 µM)
3 | CO[C@H]1/C=C/O[C@@]2(C)Oc3c(C)c(O)c4c(O)c(c(/C=N/N5CCN(C)CC5)c(O)c4c3C2=O)NC(=O)/C(C)=C\C=C\[C@H](C)[C@H](O)[C@@H](C)[C@@H](O)[C@@H](C)[C@H](OC(C)=O)[C@@H]1C [Rifampicin] | 0.008 (≈ 0.00972 µM) | 0.008 (≈ 0.00972 µM) | 0.008 (≈ 0.00972 µM) | ≤ 0.004 | ≤ 0.004 | ≤ 0.004 | 0.008 (≈ 0.00972 µM) | 0.016 (≈ 0.0194 µM) | 0.004 to 0.03 (≈ 0.00486 to 0.0365 µM) | ≤ 0.004 | 0.06 (≈ 0.0729 µM) | 0.004 to 0.06 (≈ 0.00486 to 0.0729 µM) | ≤ 0.008 | ≤ 0.004 | 0.008 (≈ 0.00972 µM) | 0.004 to 0.008 (≈ 0.00486 to 0.00972 µM) | 2.86 ± 5 | ≤ 0.004 | ≤ 0.004 | ≤ 0.004 | Mean PAE [5]: 3.09 ± 4 h; MIC50 [6]: ≤ 0.004 µg/mL; MIC [6]: 0.004 to 0.008 µg/mL (≈ 0.00486 to 0.00972 µM); MIC90 [6]: 0.008 µg/mL (≈ 0.00972 µM); MIC50 [7]: ≤ 0.004 µg/mL; MIC90 [7]: ≤ 0.004 µg/mL; MIC [7]: 0.004 to 0.008 µg/mL (≈ 0.00486 to 0.00972 µM); MIC50 [8]: ≤ 0.004 µg/mL; MIC90 [8]: ≤ 0.004 µg/mL; MIC [8]: ≤ 0.004 µg/mL; MIC50 [9]: ≤ 0.004 µg/mL; MIC90 [9]: ≤ 0.004 µg/mL; MIC [9]: ≤ 0.004 µg/mL; MIC50 [10]: ≤ 0.004 µg/mL; MIC90 [10]: ≤ 0.004 µg/mL; MIC [10]: 0.004 to 0.008 µg/mL (≈ 0.00486 to 0.00972 µM); MIC50 [11]: ≤ 0.004 µg/mL; MIC90 [11]: ≤ 0.004 µg/mL; MIC [11]: ≤ 0.004 µg/mL
4 | N[C@@H]1[C@H]2CN(c3nc4c(cc3F)c(=O)c(C(=O)O)cn4-c3ccc(F)cc3F)C[C@@H]12 [Trovafloxacin] | ≤ 0.004 | ≤ 0.004 | ≤ 0.004 | ≤ 0.004 | ≤ 0.004 | ≤ 0.004 | 0.008 (≈ 0.0192 µM) | 0.008 (≈ 0.0192 µM) | 0.004 to 0.008 (≈ 0.00961 to 0.0192 µM) | ≤ 0.004 | ≤ 0.004 | ≤ 0.004 | ≤ 0.008 | ≤ 0.004 | ≤ 0.004 | ≤ 0.004 | 1.71 ± 1 | ≤ 0.004 | ≤ 0.004 | 0.004 to 0.008 (≈ 0.00961 to 0.0192 µM) | Mean PAE [5]: 1.22 ± 1 h; MIC50 [6]: ≤ 0.004 µg/mL; MIC [6]: 0.004 to 0.016 µg/mL (≈ 0.00961 to 0.0384 µM); MIC90 [6]: ≤ 0.004 µg/mL; MIC50 [7]: ≤ 0.004 µg/mL; MIC90 [7]: ≤ 0.004 µg/mL; MIC [7]: ≤ 0.004 µg/mL; MIC50 [8]: ≤ 0.004 µg/mL; MIC90 [8]: ≤ 0.004 µg/mL; MIC [8]: ≤ 0.004 µg/mL; MIC50 [9]: ≤ 0.004 µg/mL; MIC90 [9]: ≤ 0.004 µg/mL; MIC [9]: ≤ 0.004 µg/mL; MIC50 [10]: ≤ 0.004 µg/mL; MIC90 [10]: ≤ 0.004 µg/mL; MIC [10]: ≤ 0.004 µg/mL; MIC50 [11]: ≤ 0.004 µg/mL; MIC90 [11]: ≤ 0.004 µg/mL; MIC [11]: ≤ 0.004 µg/mL
